Holding throughout (type): in vivo
Assay [1] relates to Soybean. Nature of the assay: Postemergence Herbicidal Activity, Soybean. As to conditions: Glycine max, post-emergence; for plant injury at 1000 g/ha: 1.0 kg/ha. A digest of the protocol: (§1)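 Efficacy is recorded as percent control at each application rate, expressed in kg/ha.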
Assay [2] relates to Green Foxtail. Nature of the assay: Postemergence Herbicidal Activity, Green Foxtail. The following applies: Setaria viridis, post-emergence; for pest or weed control at 1000 g/ha: 1.0 kg/ha. The method in brief: as §1
For assay [3], the system named is Soybean. Nature of the assay: Preemergence Herbicidal Activity, Soybean. As to conditions: Glycine max, pre-emergence; for plant injury at 1000 g/ha: 1.0 kg/ha. The method in brief:
as §1

Assay [4] deals with Wheat. Nature of the assay: Postemergence Herbicidal Activity, Wheat. As to conditions: Triticum aestivum, post-emergence; for plant injury at 1000 g/ha: 1.0 kg/ha. A digest of the protocol:
as §1

The subject of assay [5] is Barnyardgrass. Nature of the assay: Postemergence Herbicidal Activity, Barnyardgrass. As to conditions: Echinochloa crus-galli, post-emergence; for pest or weed control at 1000 g/ha: 1.0 kg/ha. A digest of the protocol:
as §1

Assay [6] relates to Field Corn. Nature of the assay: Preemergence Herbicidal Activity, Field Corn. As to conditions: Zea mays, pre-emergence; for plant injury at 1000 g/ha: 1.0 kg/ha. The method in brief: as §1
In assay [7] the test system is Barnyardgrass. Nature of the assay: Preemergence Herbicidal Activity, Barnyardgrass. The following applies: Echinochloa crus-galli, pre-emergence; for pest or weed control at 1000 g/ha: 1.0 kg/ha. A digest of the protocol:
as §1

Assay [8] deals with Cotton. Nature of the assay: Preemergence Herbicidal Activity, Cotton. The following applies: Gossypium hirsutum, pre-emergence; for plant injury at 1000 g/ha: 1.0 kg/ha. The method in brief: (§2)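 Percent control scored after pre- or postemergence treatment at rates in kg/ha, using test compounds generally formulated in 50/50 acetone/water.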
Assay [9] has as its system Rice. Nature of the assay: Postemergence Herbicidal Activity, Rice. As to conditions: Oryza sativa, post-emergence; for plant injury at 1000 g/ha: 1.0 kg/ha. The method in brief: as §1
In assay [10] the test system is Wheat. Nature of the assay: Preemergence Herbicidal Activity, Wheat. As to conditions: Triticum aestivum, pre-emergence; for plant injury at 1000 g/ha: 1.0 kg/ha. The method in brief:
as §1

The test system of assay [11] is Velvetleaf. Nature of the assay: Preemergence Herbicidal Activity, Velvetleaf. The following applies: Abutilon theophrasti, pre-emergence; for pest or weed control at 1000 g/ha: 1.0 kg/ha. A digest of the protocol: as §2
Assay [12] has as its system Velvetleaf. Nature of the assay: Postemergence Herbicidal Activity, Velvetleaf. As to conditions: Abutilon theophrasti, post-emergence; for pest or weed control at 1000 g/ha: 1.0 kg/ha. The method in brief: as §2
Assay [13] has as its system Morningglory. Nature of the assay: Postemergence Herbicidal Activity, Morningglory. The following applies: Ipomoea, post-emergence; for pest or weed control at 1000 g/ha: 1.0 kg/ha. The method in brief: as §2
Assay [14] concerns Field Bindweed. Nature of the assay: Preemergence Herbicidal Activity, Field Bindweed. The following applies: pre-emergence; for pest or weed control at 1000 g/ha: 1.0 kg/ha. A digest of the protocol: as §2
The subject of assay [15] is Field Bindweed. Nature of the assay: Postemergence Herbicidal Activity, Field Bindweed. The following applies: post-emergence; for pest or weed control at 1000 g/ha: 1.0 kg/ha. The text has this:
The herbicidal data in the following Tables 3 and 4 was obtained in the manner described in PCT published application no. WO 85/01939, previously mentioned, usually employing solutions of the herbicidal compound in 50/50 acetone/water mixtures. In those tables, the test compounds are identified by numbers which correspond to those in Table 1, "kg/ha" is kilograms per hectare, and "% C" is percent control.

Assay [16] relates to Morningglory. Nature of the assay: Preemergence Herbicidal Activity, Morningglory. As to conditions: Ipomoea, pre-emergence; for pest or weed control at 1000 g/ha: 1.0 kg/ha. The method in brief: as §2
The test system of assay [17] is Cotton. Nature of the assay: Postemergence Herbicidal Activity, Cotton. The following applies: Gossypium hirsutum, post-emergence; for plant injury at 1000 g/ha: 1.0 kg/ha. The method in brief: as §2
Assay [18] has as its system Green Foxtail. Nature of the assay: Preemergence Herbicidal Activity, Green Foxtail. The following applies: Setaria viridis, pre-emergence; for pest or weed control at 1000 g/ha: 1.0 kg/ha. The method in brief:
as §1

Assay [19] relates to Field Corn. Nature of the assay: Postemergence Herbicidal Activity, Field Corn. The following applies: Zea mays, post-emergence; for plant injury at 1000 g/ha: 1.0 kg/ha. A digest of the protocol:
as §1

In assay [20] the test system is Rice. Nature of the assay: Preemergence Herbicidal Activity, Rice. As to conditions: Oryza sativa, pre-emergence; for plant injury at 1000 g/ha: 1.0 kg/ha. The method in brief:
as §1

The subject of assay [21] is Johnsongrass. Nature of the assay: Postemergence Herbicidal Activity, Johnsongrass. As to conditions: Sorghum halepense, post-emergence; for pest or weed control at 1000 g/ha: 1.0 kg/ha. A digest of the protocol: as §1
Assay [22] deals with Johnsongrass. Nature of the assay: Preemergence Herbicidal Activity, Johnsongrass. The following applies: Sorghum halepense, pre-emergence; for pest or weed control at 1000 g/ha: 1.0 kg/ha. A digest of the protocol:
as §1

This is an account of results in US4868321A, “Isothiocyanate intermediates” (FMC Corporation, priority 1988, dated 1989).

On to `CS(=O)(=O)N(c1cc(-n2nnn(CCCF)c2=O)c(F)cc1Br)S(C)(=O)=O` [Compound 10, 1-(4-bromo-2-fluoro-5-[bis(N--methylsulfonyl)amino]phenyl]-1,4-dihydro-4-(3-fluoropropyl)-5H--tetrazol-5-one], for which the plant injury at 1000 g/ha in the assay on Soybean [1] amounted to 95%; in the assay with Soybean [3], 80%; with Wheat [4] it was 60%; in the assay with Field Corn [6] it was 95%; in the assay with Cotton [8], 100%; in the assay on Rice [9], 30%. For the same compound, the plant injury at 1000 g/ha is 90% in the assay with Wheat [10], 100% in the assay on Cotton [17], 90% in the assay on Field Corn [19] and 95% in the assay with Rice [20]. Also, the pest or weed control at 1000 g/ha in the assay on Green Foxtail [2], with Barnyardgrass [5], in the assay on Barnyardgrass [7], in the assay on Velvetleaf [11], in the assay on Velvetleaf [12] and in the assay with Morningglory [13] was 100% in each case. Also, the pest or weed control at 1000 g/ha amounted to 100% in the assay on Field Bindweed [14]; 100% with Field Bindweed [15]; 100% in the assay with Morningglory [16]; 100% in the assay with Green Foxtail [18]; 100% in the assay on Johnsongrass [21]; 95% with Johnsongrass [22].

In the case of `CS(=O)(=O)Nc1cc(-n2nnn(CCCF)c2=O)c(F)cc1Br` [Compound 33, 1-[4-Bromo-2-fluoro-5-(N--methylsulfonylamino)phenyl]-1,4-dihydro-(3-fluoropropyl)-5H--tetrazol-5-one], the plant injury at 250 g/ha in the assay on Soybean [1] (0.25 kg/ha) worked out at 70%; with Soybean [3] (0.25 kg/ha), 10%; in the assay on Wheat [4] (0.25 kg/ha) it was 40%; with Field Corn [6] (0.25 kg/ha) it was 40%; with Cotton [8] (0.25 kg/ha) it was 100%; in the assay on Rice [9] (0.25 kg/ha), 80%. For the same compound, the plant injury at 250 g/ha was 20% in the assay on Wheat [10] (0.25 kg/ha), 100% with Cotton [17] (0.25 kg/ha), 30% in the assay on Field Corn [19] (0.25 kg/ha) and 80% in the assay with Rice [20] (0.25 kg/ha). Moreover, the pest or weed control at 250 g/ha came out at 100% with Green Foxtail [2] (0.25 kg/ha); 80% in the assay with Barnyardgrass [5] (0.25 kg/ha); 95% with Barnyardgrass [7] (0.25 kg/ha); 100% in the assay with Velvetleaf [11] (0.25 kg/ha); 100% in the assay with Velvetleaf [12] (0.25 kg/ha); 100% in the assay with Morningglory [13] (0.25 kg/ha). For the same compound, the pest or weed control at 250 g/ha with Field Bindweed [14] (0.25 kg/ha) worked out at 100%; in the assay on Field Bindweed [15] (0.25 kg/ha), 100%; in the assay on Morningglory [16] (0.25 kg/ha), 100%; with Green Foxtail [18] (0.25 kg/ha), 70%; in the assay on Johnsongrass [21] (0.25 kg/ha) it was 70%; with Johnsongrass [22] (0.25 kg/ha), 70%.

Consider `CCOC(=O)CN(c1cc(-n2nnn(CCCF)c2=O)c(F)cc1Cl)S(=O)(=O)CC` [Compound 17, ethyl [2-chloro-4-fluoro-5-[1,4-dihydro-5-oxo-4-(3-fluoropropyl)tetrazol-1-yl]-phenyl(N--ethylsulfonyl)amino]-acetate], for which the plant injury at 1000 g/ha is 50% in the assay with Soybean [1]; 10% in the assay on Soybean [3]; 40% with Wheat [4]; 10% with Field Corn [6]; 10% with Cotton [8]; 20% with Rice [9]. Also, the plant injury at 1000 g/ha with Wheat [10] turned out to be 20%; in the assay with Cotton [17], 90%; in the assay with Field Corn [19] it was 60%; in the assay with Rice [20], 10%. Moreover, the pest or weed control at 1000 g/ha in the assay on Green Foxtail [2] is 40%; in the assay on Barnyardgrass [5] it was 40%; in the assay on Barnyardgrass [7], 20%; with Velvetleaf [11] it was 90%; with Velvetleaf [12], 95%; in the assay on Morningglory [13] it was 60%. The pest or weed control at 1000 g/ha in the assay on Field Bindweed [14] is 10%; in the assay with Field Bindweed [15] it was 80%; with Morningglory [16], 30%; in the assay with Green Foxtail [18] it was 30%; with Johnsongrass [21], 40%; with Johnsongrass [22], 60%.
